Broadly, the melting point is the temperature, or range, at which the solid turns liquid.

Consider `CCCCNC(=O)C(C)CC(O)C(Cc1ccccc1)NC(=O)C1=Cc2ccccc2Oc2cc(Cl)ccc21` (stereo not shown) [Example 9, 7-Chloro-dibenzo[b,f]oxepine-10-carboxylic acid (1-benzyl-4-butylcarbamoyl-2-hydroxy-pentyl)-amide], for which the melting point was 153 to 155 °C.

As for `CCCCNC(=O)C(C)CC(O)C(Cc1ccccc1)NC(=O)c1cc2ccccc2c(=O)c2ccccc12` (stereo not shown) [Example 11, 5-Oxo-5H-dibenzo[a,d]cycloheptene-10-carboxylic acid (1-benzyl-4-butylcarbamoyl-2-hydroxy-pentyl)-amide], the melting point lay within 229 to 230 °C.

For the compound `CCCCNC(=O)C(C)CC(O)C(Cc1cc(F)cc(F)c1)NC(=O)C1=Cc2ccccc2Oc2ccccc21` (stereo not shown) [Example 16, Dibenzo[b,f]oxepine-10-carboxylic acid [4-butylcarbamoyl-1-(3,5-difluorobenzyl)-2-hydroxy-pentyl]-amide], the melting point was in the range of 174 to 176 °C.

For the compound `CCCCNC(=O)C(C)CC(O)C(Cc1cccc(F)c1)NC(=O)C1=Cc2ccccc2Oc2ccccc21` (stereo not shown) [Example 17, Dibenzo[b,f]oxepine-10-carboxylic acid [4-butylcarbamoyl-1-(3-fluorobenzyl)-2-hydroxy-pentyl]-amide], the melting point lay in the range of 204 to 207 °C.

For the origin of these results see patent publication US7612054B2, “Dibenzo[b,f]oxepine-10-carboxamides and pharmaceutical uses thereof” (Novartis AG, priority 2003, dated 2009).
